Source: US20210102239A1, “METHOD FOR DETERMINING BACTERIAL NUMBER IN SPECIMEN” (MITSUI CHEMICALS, INC., priority 2017, published 2021)

What was measured:
[1] = tested on: Escherichia coli; test: Case 3: pathogen count (nested PCR) and biomarkers in blood before/after antibiotic treatment; type: in vivo, human (sepsis patient); details: for CRP: pretreatment 1.1; for BT (body temperature): pretreatment 39.6; for WBC: pretreatment 168.3; for Presepsin: pretreatment 343; for IL-6: pretreatment 678; for Pathogen (Ave): pretreatment 3600
Description: (§1) First, bacterial cells were collected from a blood specimen by centrifuging the whole blood at a low rate of 100×g for 5 minutes to separate blood cells, centrifuging the resultant supernatant (containing buffy coat) at a high rate of 20,000×g for 10 minutes to obtain a pellet.
(§2) Using DNA of a pathogenic bacterium taken from the blood specimen according to the method of Step 1 as a template, nested PCR (1st PCR: 30 cycle→100 double dilution→2nd PCR: 30 to 35 cycles) is carried out. The bacterial cells in patient specimens vary in a wide range from very small to large number. Since it is difficult to accurately determine the bacterial number in a single cycle of PCR, nested PCR methods are used in combination.
(§3) Subsequently, using pathogenic bacterium DNA of Step 1 as a template, nested PCR was carried out together with a quantification control in the conditions described in Step 2. In the 1st PCR and 2nd PCR for quantification, the following bacterial universal primer (primer for detecting almost all bacteria) was used. The target region of the bacterial universal primer is a bacterial conserved region (base sequence region common in almost all bacteria) of a 16S ribosomal RNA gene. A predetermined bacterium is quantified by a bacterial species-specific primer; however, a pathogenic bacterium is not identified in the early stage of sepsis. Because of this, a bacterial species-specific primer cannot be used. Accordingly, unless a bacterial universal primer is used, an unidentified bacterium cannot be detected.
As mentioned above, E. coli DNA samples of three different concentrations and of a known bacterial number were used as quantification controls. Based on the data of three quantification controls different in concentration, a calibration curve was prepared. Based on bacterial DNA extracted from a patient specimen, the number of pathogenic bacterial cells was determined. Since the number of bacterial cells was obtained as an E. coli cell-number equivalent used as a quantification control, the number of bacterial cells in a specimen can be more easily, rapidly and accurately determined.
(§4) According to Step 1 to Step 4 of Example 1, a pathogenic bacterium rapid quantification test using sepsis patient's specimens (EDTA blood collection tube, 2 mL) was carried out. […] Blood was sampled before treatment with an antibiotic (pretreatment), and 24 hours (after 24 hrs.) and 72 hours (after 72 hrs.) after administration of the antibiotic. At the three points, a pathogenic bacterium rapid quantification test was carried out together with measurement of body temperature, white blood cell count, CRP, presepsin and IL-6. Furthermore, a blood specimen sampled before the antibiotic treatment was subjected to a blood culture method to identify a pathogenic bacterium and subjected to a drug sensitivity test. General information about individual cases is as follows.
Case 3: • person, sepsis associated with urinary tract infection • blood culture/urine culture: Escherichia coli • antibiotics substance: tazobactam/piperacillin (sensitive)

[2] = tested on: Enterobacter aerogenes; test: drug sensitivity test of the pathogenic bacterium from blood culture; type: cell-based; details: Case 7, isolate from blood specimen sampled before antibiotic treatment
Description: as §4, with “Step 5” for “Step 4”, “rapid identification/quantification” for “rapid quantification”

[3] = tested on: Escherichia coli; test: Case 5: pathogen identification/quantification and biomarkers in blood before/after antibiotic treatment; type: in vivo, human (sepsis patient); details: for CRP: pretreatment 1.1; for BT (body temperature): pretreatment 39.6; for WBC: pretreatment 168.3; for Presepsin: pretreatment 343; for IL-6: pretreatment 678; for Pathogen (Ave): pretreatment 3600
Description: as §1, §2, §3
(§5) As mentioned above, E. coli DNA samples of three different concentrations and of a known bacterial number were used as quantification controls. Based on the data of three quantification controls different in concentration, a calibration curve was prepared. Based on bacterial DNA extracted from a patient specimen, the number of pathogenic bacterial cells was determined.
(§6) For the reason, it is necessary to make a correction based on the operon copy number per bacterium species in order to more accurately determine bacterial number. Since identification and qualification of a pathogenic bacterium are carried out concurrently in Step 3 and Step 4, the number of pathogenic bacterial cells can be corrected based on 16S ribosomal RNA operon copy number of the bacterium identified to computationally obtain the correct number of bacterial cells.
as §4, with “Step 5” for “Step 4”, “rapid identification/quantification” for “rapid quantification”

[4] = tested on: Enterobacter aerogenes; test: Case 7: pathogen identification/quantification and biomarkers in blood before/after antibiotic treatment; type: in vivo, human (sepsis patient); details: for BT (body temperature): pretreatment 38.8; for WBC: pretreatment 59.4; for CRP: pretreatment 72.3; for Presepsin: pretreatment 1322; for Pathogen (Ave): pretreatment 41083; for IL-6: pretreatment 238000
Description: as §1, §2, §3, §5, §6
as §4, with “Step 5” for “Step 4”, “rapid identification/quantification” for “rapid quantification”

[5] = tested on: Escherichia coli; test: drug sensitivity test of the pathogenic bacterium from blood culture; type: cell-based; details: isolate from blood specimen sampled before antibiotic treatment
Description: as §4
According to Step 1 to Step 5 of Example 1, a pathogenic bacterium rapid identification/quantification test using sepsis patient's specimens (EDTA blood collection tube, 2 mL) was carried out. […] Blood was sampled before treatment with an antibiotic (pretreatment), and 24 hours (after 24 hrs.) and 72 hours (after 72 hrs.) after administration of the antibiotic. At the three points, a pathogenic bacterium rapid identification/quantification test was carried out together with measurement of body temperature, white blood cell count, CRP, presepsin and IL-6. […]

[6] = tested on: Streptococcus dysgalactiae; test: Case 6: pathogen identification/quantification and biomarkers in blood before/after antibiotic treatment; type: in vivo, human (sepsis patient); details: for BT (body temperature): pretreatment 39.7; for WBC: pretreatment 89.5; for IL-6: pretreatment 115; for CRP: pretreatment 136.1; for Presepsin: pretreatment 1373; for Pathogen (Ave): pretreatment 2651
Description: as §1, §2, §3, §5, §6
as §4, with “Step 5” for “Step 4”, “rapid identification/quantification” for “rapid quantification”

Question: Which CRP ([1]; Case 3, 24 h after antibiotic) does the source give for tazobactam/piperacillin here?
Answer: 9.3 mg/L

Question: What about the “BT (body temperature)” value ([1]; Case 3, 24 h after antibiotic) of the same substance?
Answer: 36.6 °C

Question: What about the WBC ([1]; Case 3, 24 h after antibiotic) of the same substance?
Answer: 61.4 × 100/μL

Question: What about the Presepsin ([1]; Case 3, 24 h after antibiotic) of the same substance?
Answer: 267 ng/mL

Question: And the IL-6 ([1]; Case 3, 24 h after antibiotic)?
Answer: 5 pg/mL

Question: And the “Pathogen (Ave)” value ([1]; Case 3, 24 h after antibiotic)?
Answer: 2102 cells/ml

Question: And the CRP ([1]; Case 3, 72 h after antibiotic)?
Answer: 2.9 mg/L

Question: And the “BT (body temperature)” value ([1]; Case 3, 72 h after antibiotic)?
Answer: 37.2 °C

Question: And the WBC ([1]; Case 3, 72 h after antibiotic)?
Answer: 49.2 × 100/μL

Question: What about the Presepsin ([1]; Case 3, 72 h after antibiotic) of the same substance?
Answer: 501 ng/mL

Question: And the IL-6 ([1]; Case 3, 72 h after antibiotic)?
Answer: 6.3 pg/mL

Question: What about the “Pathogen (Ave)” value ([1]; Case 3, 72 h after antibiotic) of the same substance?
Answer: 2 cells/ml

Question: And the drug sensitivity [2]?
Answer: sensitive

Question: What about the CRP ([3]; Case 5, 24 h after antibiotic) of the same substance?
Answer: 9.3 mg/L

Question: And the “BT (body temperature)” value ([3]; Case 5, 24 h after antibiotic)?
Answer: 36.6 °C

Question: And the WBC ([3]; Case 5, 24 h after antibiotic)?
Answer: 61.4 × 100/μL

Question: What about the Presepsin ([3]; Case 5, 24 h after antibiotic) of the same substance?
Answer: 267 ng/mL

Question: What about the IL-6 ([3]; Case 5, 24 h after antibiotic) of the same substance?
Answer: 5 pg/mL

Question: What about the “Pathogen (Ave)” value ([3]; Case 5, 24 h after antibiotic) of the same substance?
Answer: 2102 cells/ml

Question: And the CRP ([3]; Case 5, 72 h after antibiotic)?
Answer: 2.9 mg/L

Question: And the “BT (body temperature)” value ([3]; Case 5, 72 h after antibiotic)?
Answer: 37.2 °C

Question: And the WBC ([3]; Case 5, 72 h after antibiotic)?
Answer: 49.2 × 100/μL

Question: What about the Presepsin ([3]; Case 5, 72 h after antibiotic) of the same substance?
Answer: 501 ng/mL

Question: And the IL-6 ([3]; Case 5, 72 h after antibiotic)?
Answer: 6.3 pg/mL

Question: And the “Pathogen (Ave)” value ([3]; Case 5, 72 h after antibiotic)?
Answer: 2 cells/ml

Question: What about the “BT (body temperature)” value ([4]; Case 7, 24 h after antibiotic) of the same substance?
Answer: 38.4 °C

Question: And the WBC ([4]; Case 7, 24 h after antibiotic)?
Answer: 258.5 × 100/μL

Question: And the CRP ([4]; Case 7, 24 h after antibiotic)?
Answer: 107 mg/L

Question: What about the Presepsin ([4]; Case 7, 24 h after antibiotic) of the same substance?
Answer: 1516 ng/mL

Question: And the “Pathogen (Ave)” value ([4]; Case 7, 24 h after antibiotic)?
Answer: 19156 cells/ml

Question: What about the IL-6 ([4]; Case 7, 24 h after antibiotic) of the same substance?
Answer: 41700 pg/mL

Question: What about the “BT (body temperature)” value ([4]; Case 7, 72 h after antibiotic) of the same substance?
Answer: 36.4 °C

Question: What about the WBC ([4]; Case 7, 72 h after antibiotic) of the same substance?
Answer: 198.2 × 100/μL

Question: And the CRP ([4]; Case 7, 72 h after antibiotic)?
Answer: 241.4 mg/L

Question: And the Presepsin ([4]; Case 7, 72 h after antibiotic)?
Answer: 2473 ng/mL

Question: And the “Pathogen (Ave)” value ([4]; Case 7, 72 h after antibiotic)?
Answer: 59 cells/ml

Question: What about the IL-6 ([4]; Case 7, 72 h after antibiotic) of the same substance?
Answer: 176 pg/mL

Question: What about the drug sensitivity [5] of the same substance?
Answer: sensitive

Question: And the “BT (body temperature)” value ([6]; Case 6, 24 h after antibiotic)?
Answer: 37.0 °C

Question: And the WBC ([6]; Case 6, 24 h after antibiotic)?
Answer: 77.3 × 100/μL

Question: What about the IL-6 ([6]; Case 6, 24 h after antibiotic) of the same substance?
Answer: 85.3 pg/mL

Question: And the CRP ([6]; Case 6, 24 h after antibiotic)?
Answer: 139.8 mg/L

Question: What about the Presepsin ([6]; Case 6, 24 h after antibiotic) of the same substance?
Answer: 854 ng/mL

Question: What about the “Pathogen (Ave)” value ([6]; Case 6, 24 h after antibiotic) of the same substance?
Answer: 308 cells/ml

Question: What about the “BT (body temperature)” value ([6]; Case 6, 72 h after antibiotic) of the same substance?
Answer: 37.2 °C

Question: And the WBC ([6]; Case 6, 72 h after antibiotic)?
Answer: 54.1 × 100/μL

Question: What about the IL-6 ([6]; Case 6, 72 h after antibiotic) of the same substance?
Answer: 59.4 pg/mL

Question: What about the CRP ([6]; Case 6, 72 h after antibiotic) of the same substance?
Answer: 43.2 mg/L

Question: What about the Presepsin ([6]; Case 6, 72 h after antibiotic) of the same substance?
Answer: 708 ng/mL

Question: What about the “Pathogen (Ave)” value ([6]; Case 6, 72 h after antibiotic) of the same substance?
Answer: 20 cells/ml
